A short description of data set [1]: Cmax in Beagle dog at 1 mg/kg, po by LC-MS/MS analysis. Type of data set: ADME, organism-based, Canis lupus familiaris. On the set-up: dose 1 mg/kg, route oral. To be noted: in vivo.
For data set [2], the system named is Rattus norvegicus. In words: Reduction in mean arterial pressure in normotensive Sprague-Dawley rat at 30 mg/kg, po measured after 12 to 24 hrs. Type of data set: functional, Artery.
Data set [3] concerns the target 3',5'-cyclic-AMP phosphodiesterase 4D (Homo sapiens) (UniProt Q08499). In words: Inhibition of PDE4D2 (unknown origin) at 10 uM.
The nature of data set [4]: Oral bioavailability in Beagle dog at 1 mg/kg by LC-MS/MS analysis. Type of data set: ADME, organism-based, Canis lupus familiaris. The settings on record: in vivo.
The subject of data set [5] is Rattus norvegicus. In words: Reduction in mean arterial pressure in normotensive Sprague-Dawley rat at 10 mg/kg, po measured after 12 to 24 hrs. Type of data set: functional, Artery.
Data set [6] concerns the target cAMP and cAMP-inhibited cGMP 3',5'-cyclic phosphodiesterase 10A (Homo sapiens) (UniProt Q9Y233). The data set can be described thus: Inhibition of PDE10A (unknown origin) at 10 uM.
The nature of data set [7]: Apparent permeability of compound from apical to basolateral side. Type of data set: physicochemical. The settings on record: not told.
Data set [8] in a line: Thermodynamic solubility of the compound at pH 7.4. Type of data set: physicochemical. To be noted: buffer, read-out: Therm_solubility.
Data set [9] deals with T1, Kappa-type opioid receptor (Homo sapiens, UniProt P41145). The data set can be described thus: Binding affinity to KOP receptor (unknown origin) at 10 uM.
T1 sequence (P41145 whole entry): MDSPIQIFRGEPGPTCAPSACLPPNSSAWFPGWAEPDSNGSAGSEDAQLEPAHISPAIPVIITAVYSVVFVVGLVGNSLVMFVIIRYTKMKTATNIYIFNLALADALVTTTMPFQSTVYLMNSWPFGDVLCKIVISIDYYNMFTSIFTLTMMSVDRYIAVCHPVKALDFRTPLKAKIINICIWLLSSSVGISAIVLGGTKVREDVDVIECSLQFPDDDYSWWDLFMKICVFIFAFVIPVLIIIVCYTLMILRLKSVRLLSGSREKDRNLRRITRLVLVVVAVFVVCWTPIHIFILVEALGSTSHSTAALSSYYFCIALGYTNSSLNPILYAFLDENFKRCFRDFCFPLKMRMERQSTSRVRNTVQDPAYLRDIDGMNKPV
The nature of data set [10]: Volume of distribution at steady state in CD-1 mouse at 0.1 mg/kg, iv or 1 mg/kg, po by LC-MS/MS analysis. Type of data set: ADME, organism-based. To be noted: in vivo, read-out: Vdss.
A short description of data set [11]: AUC(0 to infinity) in CD-1 mouse at 0.1 mg/kg, iv or 1 mg/kg, po by LC-MS/MS analysis. To be noted: in vivo. Type of data set: ADME, organism-based.
Data set [12] is described as follows: AUC(0 to infinity) in Sprague-Dawley rat at 0.1 mg/kg, iv or 1 mg/kg, po by LC-MS/MS analysis. Type of data set: ADME, organism-based. To be noted: in vivo.
In data set [13] the target is cGMP-dependent 3',5'-cyclic phosphodiesterase (Homo sapiens) (UniProt O00408). In words: Inhibition of PDE2A (unknown origin) at 10 uM.
cGMP-dependent 3',5'-cyclic phosphodiesterase (Homo sapiens), sequence (O00408 whole entry): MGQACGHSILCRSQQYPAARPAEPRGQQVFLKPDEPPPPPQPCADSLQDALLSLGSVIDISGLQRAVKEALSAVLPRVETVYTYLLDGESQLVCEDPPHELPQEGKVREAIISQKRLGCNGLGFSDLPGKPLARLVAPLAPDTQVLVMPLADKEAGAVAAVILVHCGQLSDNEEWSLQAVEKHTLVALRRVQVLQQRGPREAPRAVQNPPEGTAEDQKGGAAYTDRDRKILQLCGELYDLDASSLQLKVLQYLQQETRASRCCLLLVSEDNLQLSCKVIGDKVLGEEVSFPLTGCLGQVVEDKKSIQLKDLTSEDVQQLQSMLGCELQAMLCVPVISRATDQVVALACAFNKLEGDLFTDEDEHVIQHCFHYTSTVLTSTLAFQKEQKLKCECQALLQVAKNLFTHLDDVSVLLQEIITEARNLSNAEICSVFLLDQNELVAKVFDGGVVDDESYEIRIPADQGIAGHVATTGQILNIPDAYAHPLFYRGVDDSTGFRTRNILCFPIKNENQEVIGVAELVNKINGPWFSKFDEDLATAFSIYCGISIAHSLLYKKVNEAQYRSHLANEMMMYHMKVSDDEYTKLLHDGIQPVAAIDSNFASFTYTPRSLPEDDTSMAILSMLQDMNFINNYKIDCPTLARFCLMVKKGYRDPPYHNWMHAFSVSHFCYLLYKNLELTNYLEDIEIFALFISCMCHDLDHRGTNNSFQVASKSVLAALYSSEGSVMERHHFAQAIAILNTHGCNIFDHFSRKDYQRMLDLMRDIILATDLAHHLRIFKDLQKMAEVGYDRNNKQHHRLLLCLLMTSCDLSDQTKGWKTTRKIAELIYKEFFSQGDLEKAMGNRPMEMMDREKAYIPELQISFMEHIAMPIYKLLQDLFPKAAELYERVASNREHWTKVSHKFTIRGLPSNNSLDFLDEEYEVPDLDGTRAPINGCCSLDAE
A short description of data set [14]: Tmax in Sprague-Dawley rat at 0.1 mg/kg, iv or 1 mg/kg, po by LC-MS/MS analysis. Type of data set: ADME, organism-based. The settings on record: in vivo.
A short description of data set [15]: Oral bioavailability in CD-1 mouse at 1 mg/kg by LC-MS/MS analysis. The settings on record: in vivo. Type of data set: ADME, organism-based.
Data set [16] deals with cGMP-inhibited 3',5'-cyclic phosphodiesterase 3A (Homo sapiens) (UniProt Q14432). The data set can be described thus: Inhibition of PDE3A (unknown origin) at 10 uM.
cGMP-inhibited 3',5'-cyclic phosphodiesterase 3A (Homo sapiens), sequence (Q14432 whole entry): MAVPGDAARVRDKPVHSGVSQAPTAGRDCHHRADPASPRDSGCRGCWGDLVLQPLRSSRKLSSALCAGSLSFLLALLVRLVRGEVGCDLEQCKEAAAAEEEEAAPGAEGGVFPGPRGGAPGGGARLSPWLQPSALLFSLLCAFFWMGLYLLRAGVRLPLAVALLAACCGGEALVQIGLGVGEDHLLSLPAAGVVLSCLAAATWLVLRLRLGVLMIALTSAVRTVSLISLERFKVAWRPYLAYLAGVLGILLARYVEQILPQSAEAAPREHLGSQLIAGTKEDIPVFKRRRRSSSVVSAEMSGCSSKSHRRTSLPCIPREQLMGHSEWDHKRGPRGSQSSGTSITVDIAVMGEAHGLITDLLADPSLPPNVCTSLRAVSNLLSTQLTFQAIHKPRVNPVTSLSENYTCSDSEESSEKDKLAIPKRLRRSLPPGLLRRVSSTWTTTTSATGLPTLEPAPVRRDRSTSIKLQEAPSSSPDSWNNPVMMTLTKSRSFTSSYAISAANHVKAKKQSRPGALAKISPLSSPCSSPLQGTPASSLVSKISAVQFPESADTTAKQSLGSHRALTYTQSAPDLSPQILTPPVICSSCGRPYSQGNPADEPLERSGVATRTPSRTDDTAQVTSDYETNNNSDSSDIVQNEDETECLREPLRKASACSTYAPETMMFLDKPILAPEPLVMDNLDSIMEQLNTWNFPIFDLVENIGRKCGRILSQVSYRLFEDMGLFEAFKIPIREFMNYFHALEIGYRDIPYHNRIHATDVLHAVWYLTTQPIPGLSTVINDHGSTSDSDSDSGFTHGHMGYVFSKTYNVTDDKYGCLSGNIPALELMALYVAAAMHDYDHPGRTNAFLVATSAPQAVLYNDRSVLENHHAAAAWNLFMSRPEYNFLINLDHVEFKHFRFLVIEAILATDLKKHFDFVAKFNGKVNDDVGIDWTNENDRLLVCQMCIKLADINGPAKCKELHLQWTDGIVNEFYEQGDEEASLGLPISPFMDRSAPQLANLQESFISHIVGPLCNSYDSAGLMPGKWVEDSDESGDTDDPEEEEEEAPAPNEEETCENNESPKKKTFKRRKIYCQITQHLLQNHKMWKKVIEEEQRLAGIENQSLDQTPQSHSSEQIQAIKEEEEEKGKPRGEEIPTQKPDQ
Data set [17] deals with Dual specificity calcium/calmodulin-dependent 3',5'-cyclic nucleotide phosphodiesterase 1B (Homo sapiens) (UniProt Q01064). The data set can be described thus: Inhibition of PDE1B (unknown origin) at 10 uM.
Dual specificity calcium/calmodulin-dependent 3',5'-cyclic nucleotide phosphodiesterase 1B (Homo sapiens), sequence (Q01064 whole entry): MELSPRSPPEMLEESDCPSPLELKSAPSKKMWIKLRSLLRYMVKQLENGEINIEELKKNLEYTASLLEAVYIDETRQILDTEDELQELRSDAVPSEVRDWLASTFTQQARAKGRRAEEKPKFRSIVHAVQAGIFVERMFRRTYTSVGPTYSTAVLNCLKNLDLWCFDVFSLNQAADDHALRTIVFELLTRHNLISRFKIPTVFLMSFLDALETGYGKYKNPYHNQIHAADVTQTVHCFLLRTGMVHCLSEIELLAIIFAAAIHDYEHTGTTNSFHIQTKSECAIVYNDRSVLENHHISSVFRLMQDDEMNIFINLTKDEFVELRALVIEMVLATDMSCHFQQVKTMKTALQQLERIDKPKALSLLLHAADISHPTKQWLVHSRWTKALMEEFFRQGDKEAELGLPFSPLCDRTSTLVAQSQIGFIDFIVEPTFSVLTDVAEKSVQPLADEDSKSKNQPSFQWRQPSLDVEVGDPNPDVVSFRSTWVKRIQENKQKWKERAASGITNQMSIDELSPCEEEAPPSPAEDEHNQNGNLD
The nature of data set [18]: Volume of distribution at steady state in Sprague-Dawley rat at 0.1 mg/kg, iv or 1 mg/kg, po by LC-MS/MS analysis. To be noted: in vivo, read-out: Vdss. Type of data set: ADME, organism-based.
Data set [19] concerns Rattus norvegicus. The data set can be described thus: fCmax in Sprague-Dawley rat at 1 mg/kg, po after 5 hrs by LC-MS/MS analysis. Type of data set: ADME, organism-based. To be noted: in vivo.
Data set [20] is described as follows: Dissociation constant, pKa of the compound. Type of data set: physicochemical.
Data set [21] in a line: Thermodynamic solubility of the compound at pH 9.2. Type of data set: physicochemical. To be noted: buffer, read-out: Therm_solubility.
The nature of data set [22]: Cmax in CD-1 mouse at 1 mg/kg, po by LC-MS/MS analysis. Type of data set: ADME, organism-based. Further details: dose 1 mg/kg, route oral. The settings on record: in vivo.
Data set [23] is described as follows: Tmax in CD-1 mouse at 0.1 mg/kg, iv or 1 mg/kg, po by LC-MS/MS analysis. Type of data set: ADME, organism-based. The settings on record: in vivo.
Data set [24] in a line: Cmax in Sprague-Dawley rat at 1 mg/kg, po by LC-MS/MS analysis. Type of data set: ADME, organism-based. Further details: dose 1 mg/kg, route oral. To be noted: in vivo.
In data set [25] the target is cGMP-specific 3',5'-cyclic phosphodiesterase (Homo sapiens) (UniProt O76074). The data set can be described thus: Inhibition of PDE5 (unknown origin) at 10 uM.
For data set [26], the system named is Rattus norvegicus. In words: Reduction in mean arterial pressure in po dosed normotensive Sprague-Dawley rat measured after 12 to 24 hrs. Type of data set: functional. To be noted: Artery.
Data set [27] in a line: AUC(0 to infinity) in Beagle dog at 0.1 mg/kg, iv or 1 mg/kg, po by LC-MS/MS analysis. Type of data set: ADME, organism-based, Canis lupus familiaris. To be noted: in vivo.
The nature of data set [28]: Oral bioavailability in Sprague-Dawley rat at 1 mg/kg by LC-MS/MS analysis. Type of data set: ADME, organism-based. To be noted: in vivo.
Data set [29] is described as follows: Volume of distribution at steady state in Beagle dog at 0.1 mg/kg, iv or 1 mg/kg, po by LC-MS/MS analysis. Type of data set: ADME, organism-based, Canis lupus familiaris. To be noted: in vivo, read-out: Vdss.
Data set [30] can be described thus: Tmax in Beagle dog at 0.1 mg/kg, iv or 1 mg/kg, po by LC-MS/MS analysis. Type of data set: ADME, organism-based, Canis lupus familiaris. To be noted: in vivo.
In data set [31] the target is T1, Kappa-type opioid receptor. The data set can be described thus: Agonist activity at KOP receptor (unknown origin).
Data set [32] in a line: Intrinsic clearance in human liver microsomes assessed per mg of protein at 2 uM after 10 to 30 mins by LC/MS/MS analysis in presence of NADPH. Type of data set: ADME. To be noted: read-out: CLH.
The nature of data set [33]: Intrinsic clearance in Sprague-Dawley rat liver microsomes assessed per mg of protein at 2 uM after 10 to 30 mins by LC/MS/MS analysis in presence of NADPH. Type of data set: ADME. To be noted: read-out: CLH.
Data set [34] deals with Soluble guanylate cyclase (Homo sapiens, UniProt O75343+P33402+Q02108+Q02153). The data set can be described thus: Activation of SGC in HEK293 cells assessed as cGMP production after 20 mins by LC-MS/MS analysis in presence of NO-donor DETA-NONOate. Type of data set: cell-based.
The nature of data set [35]: Oral bioavailability in Sprague-Dawley rat at 10 mg/kg by LC-MS/MS analysis. Type of data set: ADME, organism-based. To be noted: in vivo.
For data set [36], the target named is T1, Kappa-type opioid receptor. In words: Binding affinity to KOP receptor (unknown origin).
Data set [37] in a line: Terminal half-life in Sprague-Dawley rat at 1 mg/kg, iv by LC-MS/MS analysis. Type of data set: ADME, organism-based. To be noted: in vivo, read-out: beta t1/2.

SMILES strings stand for the structures. In brackets after ≈: the same amount, converted by molar mass.

These results are taken from ChEMBL document CHEMBL3808387, “Discovery of IWP-051, a Novel Orally Bioavailable sGC Stimulator with Once-Daily Dosing Potential in Humans” (ACS Med Chem Lett, 2016).

By Cmax is commonly meant the highest concentration seen after dosing. By inhibition is commonly meant the relative decrease from the control value, in per cent. As a reminder, the bioavailability is dose-corrected exposure relative to a reference, in per cent. Low readings indicate poor availability, high ones good availability. A word on the Papp A→B: it is how fast a substance crosses the layer from the apical side. For orientation: AUC(0-inf) means the area under the concentration-time curve extrapolated to infinity. Usually Tmax stands for the time from dosing to the highest level. As a reminder, the pKa is the negative logarithm of the acid dissociation constant. For orientation: EC50 means the midpoint of the concentration-response curve. What is called IC50 is the point on the concentration scale where inhibition reaches its midpoint.

cAMP and cAMP-inhibited cGMP 3',5'-cyclic phosphodiesterase 10A (Homo sapiens), sequence (Q9Y233 whole entry): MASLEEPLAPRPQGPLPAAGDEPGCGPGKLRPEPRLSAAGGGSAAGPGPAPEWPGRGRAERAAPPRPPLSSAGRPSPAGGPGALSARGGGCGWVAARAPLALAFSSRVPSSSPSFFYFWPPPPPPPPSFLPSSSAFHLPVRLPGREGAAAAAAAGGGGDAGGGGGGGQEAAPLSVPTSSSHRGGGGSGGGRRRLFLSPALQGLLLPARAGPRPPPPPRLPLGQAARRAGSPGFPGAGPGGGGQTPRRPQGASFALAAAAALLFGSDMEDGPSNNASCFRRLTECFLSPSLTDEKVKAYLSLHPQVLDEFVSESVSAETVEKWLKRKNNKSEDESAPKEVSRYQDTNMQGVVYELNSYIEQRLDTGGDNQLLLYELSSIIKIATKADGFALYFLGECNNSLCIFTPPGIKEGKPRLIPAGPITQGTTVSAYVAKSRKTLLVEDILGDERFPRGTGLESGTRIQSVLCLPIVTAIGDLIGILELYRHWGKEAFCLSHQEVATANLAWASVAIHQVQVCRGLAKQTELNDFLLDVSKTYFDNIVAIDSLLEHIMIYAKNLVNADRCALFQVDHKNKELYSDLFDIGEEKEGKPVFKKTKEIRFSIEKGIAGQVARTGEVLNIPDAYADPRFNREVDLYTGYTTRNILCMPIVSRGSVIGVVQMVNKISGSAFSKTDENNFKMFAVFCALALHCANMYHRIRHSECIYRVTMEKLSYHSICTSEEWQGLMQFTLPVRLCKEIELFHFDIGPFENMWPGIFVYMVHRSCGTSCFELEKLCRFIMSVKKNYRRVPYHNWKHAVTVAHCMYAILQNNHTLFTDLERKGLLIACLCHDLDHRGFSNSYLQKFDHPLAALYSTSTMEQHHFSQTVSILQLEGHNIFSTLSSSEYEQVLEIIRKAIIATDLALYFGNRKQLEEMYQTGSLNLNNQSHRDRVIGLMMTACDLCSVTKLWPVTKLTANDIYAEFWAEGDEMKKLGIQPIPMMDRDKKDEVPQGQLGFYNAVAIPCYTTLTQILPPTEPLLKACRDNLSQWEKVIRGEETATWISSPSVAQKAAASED
3',5'-cyclic-AMP phosphodiesterase 4D (Homo sapiens), sequence (Q08499 whole entry): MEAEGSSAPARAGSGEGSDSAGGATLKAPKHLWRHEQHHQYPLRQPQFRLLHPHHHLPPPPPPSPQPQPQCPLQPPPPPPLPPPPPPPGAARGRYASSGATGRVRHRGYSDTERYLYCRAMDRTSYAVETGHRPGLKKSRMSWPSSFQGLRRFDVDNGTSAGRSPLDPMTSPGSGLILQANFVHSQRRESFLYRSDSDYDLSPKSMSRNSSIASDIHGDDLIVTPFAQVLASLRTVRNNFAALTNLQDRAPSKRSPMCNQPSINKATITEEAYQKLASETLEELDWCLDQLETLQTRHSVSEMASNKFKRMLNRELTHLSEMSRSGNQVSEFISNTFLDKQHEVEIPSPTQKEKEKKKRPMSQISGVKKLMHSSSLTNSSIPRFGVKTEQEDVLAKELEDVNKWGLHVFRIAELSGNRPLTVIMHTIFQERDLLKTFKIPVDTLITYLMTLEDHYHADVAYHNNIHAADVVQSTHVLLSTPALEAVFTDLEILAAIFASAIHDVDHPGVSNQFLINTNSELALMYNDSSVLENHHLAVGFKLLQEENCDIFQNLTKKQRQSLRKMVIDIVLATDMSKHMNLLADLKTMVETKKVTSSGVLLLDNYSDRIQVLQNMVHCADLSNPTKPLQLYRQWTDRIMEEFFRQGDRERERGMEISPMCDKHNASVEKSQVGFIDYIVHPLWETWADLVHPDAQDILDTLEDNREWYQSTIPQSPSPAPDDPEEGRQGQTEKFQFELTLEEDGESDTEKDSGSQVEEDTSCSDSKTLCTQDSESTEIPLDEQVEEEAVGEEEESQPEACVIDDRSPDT

With `Oc1nc(-c2cc(-c3ccon3)n(Cc3ccccc3F)n2)ncc1F`, the Cmax in [1] is 3500 ng/mL; in [22], 1000 ng/mL; in data set [24], 1500 ng/mL. For the same molecule, the Activity is -30 mmHg in [2], 10 mmHg in data set [5], 21% in data set [9] and “Dose-dependent effect” in data set [26]. Moreover, the inhibition in [3], in [6], in [13], in data set [16], in [17] and in data set [25] was under 30% throughout. Further, the results for the bioavailability in [4], in [15] and in data set [28] were 45%, over 100% and 96%, respectively. In addition, in data set [7], the Papp A→B is 21.8 ×10⁻⁶ cm/s. The solubility thermodynamic in data set [8] turned out to be 3 µg/mL (≈ 8.44 µM); in [21], 142 µg/mL (≈ 400 µM). Besides, the figures for the Vd in data set [10], in data set [18] and in data set [29] were 1.3 L/kg, 0.18 L/kg and 0.095 L/kg, respectively. Besides, the values for the AUC(0-inf) in data set [11], in data set [12] and in data set [27] were 4500 ng·h/mL, 25000 ng·h/mL and 41700 ng·h/mL, respectively. Further, the Tmax in data set [14] came to 5.3 h; in [23], 1.7 h; in [30] it was 3.3 h. For the same molecule, the fCmax in [19] came out at 80 nM. In data set [20], this molecule showed a pKa of 5.75. For the same molecule, in data set [26] (read-out: MED), the minimal effective dose turned out to be 1 mg/kg.

Consider `Nc1ccnc(-c2cc(-c3ccon3)n(Cc3ccccc3F)n2)n1`, for which the concentration for a half-maximal effect (EC50) in [31] stood at 1.5 µM; in data set [34], 0.24 µM. For the same molecule, the microsomal CLint at 2 µM is 10 µL/min/mg in [32] and 26 µL/min/mg in data set [33]. The bioavailability in [35] was found to be 53%. For the same molecule, the IC50 in [36] was found to be 1.2 µM. Further, the half-life in [37] is 0.433 h.
